Reference: patent US20240408169A1 (priority 2023, published 2024)
*1 amine or outer side, *2 acyl side, *3 side chain or, on linkers, in order; H or OH if unused. Where a SMILES comes first, the peptide text is derived from it. Bridges are numbered along the chain shown (N, C = ends). [ ]: non-standard residue; d: D form. The star is where a group is joined. X106 = CN([C@@H](Cc1cc(Cl)ccc1-c1ccc(N2CCN(Cc3ccccn3)CC2)cc1)C(=O)[*:2])[*:1]; X59 = CC(c1ccc(-c2ccc(Cl)cc2C[C@@H](C(=O)[*:2])N(C)[*:1])cc1)N1CCOCC1; X58 = CC(C)C(=O)N1CC=C(c2ccc(Cl)cc2C[C@@H](C(=O)[*:2])N(C)[*:1])CC1; X81 = COc1cc(N2CCOCC2)ccc1-c1ccc(Cl)cc1C[C@@H](C(=O)[*:2])N(C)[*:1]; NMehhhLys(Me) = CN([C@@H](CCCCCCCN(C)[*:3])C(=O)[*:2])[*:1]; X5 = CN([C@@H](Cc1cc(Cl)ccc1-c1cnn2c1OCCC2)C(=O)[*:2])[*:1]; NMe(hhhLys) = CN([C@@H](CCCCCCCN[*:3])C(=O)[*:2])[*:1]; X28 = CN([C@@H](Cc1cc(Cl)cnc1OC1CCC1)C(=O)[*:2])[*:1]; Cyclobutanecarbonyl(1-CF3) = O=C(C1(C(F)(F)F)CCC1)*; cBuCO(3,3-F2-1-CF3) = O=C(C1(C(F)(F)F)CC(F)(F)C1)*; Pro(trans-4-F) = O=C(O)[C@@H]1C[C@@H](F)CN1; Gly(cPr) = N[C@H](C(=O)O)C1CC1

Key:
OVCAR3 cells = assay: MTT proliferation assay, OVCAR3; type: cell-based; details: 5 days compound exposure, 1:3 serial dilution starting at 10 μM;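 also: compound given as an 8- or 10-point series, one day after plating, with exposure covering roughly 3-4 cell doublings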
CyclinB1/CDK1 = target: T1, CyclinB1/CDK1 (Homo sapiens, UniProt P14635); assay: Fluorescence Polarization (FP) competitive binding assay, Cyclin B1/Cdk1; details: 10 nM Cyclin B1/Cdk1, 2 nM FAM probe; average of 2-3 independent experiments; read-out: Cyclin B FP IC50;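 also: fluorescence polarization read after equilibration at room temperature, with IC50 taken from serially diluted dose-response curves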
T1 construct: purchased Eurofins, discovery 14-450

CyclinE1/CDK2 = target: T2, CyclinE1/CDK2 (Homo sapiens, UniProt P24864); assay: Fluorescence Polarization (FP) competitive binding assay, Cyclin E1/Cdk2; details: 10 nM Cyclin E1/Cdk2, 2 nM FAM probe; average of 2-3 independent experiments; read-out: Cyclin E FP IC50;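 also: readings taken after two-hour equilibration at room temperature in HEPES buffer with NaCl, DTT, NP-40 and BSA, IC50 fitted from eight-concentration serial dilution series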
T2 construct: purchased Eurofins, discovery 14-475

NCI-H1048 cells = assay: MTT proliferation assay, NCI-H1048; type: cell-based; details: 5 days compound exposure, 1:3 serial dilution starting at 10 μM;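 also: Dose-response in 96-well plates over 8 or 10 concentration points, with exposure spanning 3-4 cell doublings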
WI-38 cells = assay: MTT proliferation assay, WI-38; type: cell-based; details: 3 days compound exposure, 1:3 serial dilution starting at 10 μM;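 also: Eight- or ten-point dilution series, with exposure length chosen to span about three to four cell doublings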
CyclinA2/CDK2 = target: T3, CyclinA2/CDK2 (Homo sapiens, UniProt P20248); assay: Fluorescence Polarization (FP) competitive binding assay, Cyclin A2/Cdk2; details: 8 nM Cyclin A2/Cdk2, 2 nM FAM probe; average of 2-3 independent experiments; read-out: Cyclin A FP IC50;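 also: plates equilibrated two hours at room temperature before polarization reading, IC50 fitted from eight-concentration compound titration curves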
T3 construct: purchased CRELUX Protein Services

Compound | GI50 (OVCAR3 cells) | IC50 (CyclinB1/CDK1) | IC50 (CyclinE1/CDK2) | GI50 (NCI-H1048 cells) | GI50 (WI-38 cells) | IC50 (CyclinA2/CDK2)
CC(C)C[C@@H]1NC(=O)[C@@H](N(C)C(=O)[C@@H](NC(=O)[C@@H]2C[C@@H](F)CN2C(=O)C2(C(F)(F)F)CC(F)(F)C2)C2CC2)CCCCCCCN(C)C(=O)[C@H](Cc2cc(Cl)ccc2-c2ccc(N3CCN(Cc4ccccn4)CC3)cc2)N(C)C1=O [Example 368] ({cBuCO(3,3-F2-1-CF3)}-[Pro(trans-4-F)][Gly(cPr)][NMehhhLys(Me)]L[X106]; lactam 3-C) | 10 nM | 20 nM | 480 nM | 10 nM | 15200 nM | 20 nM
CC(C)C[C@@H]1NC(=O)[C@@H](N(C)C(=O)[C@@H](NC(=O)[C@@H]2C[C@@H](F)CN2C(=O)C2(C(F)(F)F)CC(F)(F)C2)C2CC2)CCCCCCCN(C)C(=O)[C@H](Cc2cc(Cl)ccc2-c2cnn3c2OCCC3)N(C)C1=O [Example 191] ({cBuCO(3,3-F2-1-CF3)}-[Pro(trans-4-F)][Gly(cPr)][NMehhhLys(Me)]L[X5]; lactam 3-C) | 10 nM | 20 nM | 260 nM | 10 nM | 2050 nM | 20 nM
COc1cc(N2CCOCC2)ccc1-c1ccc(Cl)cc1C[C@H]1C(=O)N(C)CCCCCCC[C@H](N(C)C(=O)[C@@H](NC(=O)[C@@H]2C[C@@H](F)CN2C(=O)C2(C(F)(F)F)CC(F)(F)C2)C2CC2)C(=O)N[C@@H](CC(C)C)C(=O)N1C [Example 361] ({cBuCO(3,3-F2-1-CF3)}-[Pro(trans-4-F)][Gly(cPr)][NMehhhLys(Me)]L[X81]; lactam 3-C) | 10 nM | 20 nM | 1840 nM | 30 nM | 14300 nM | 50 nM
CC(C)C[C@@H]1NC(=O)[C@@H](N(C)C(=O)[C@@H](NC(=O)[C@@H]2C[C@@H](F)CN2C(=O)C2(C(F)(F)F)CC(F)(F)C2)C2CC2)CCCCCCN(C)C(=O)[C@H](Cc2cc(Cl)ccc2-c2cnn(C3CC3)c2)N(C)C1=O [Example 73] | 60 nM | 20 nM | 930 nM | 40 nM | 3650 nM | 30 nM
CC(C)C[C@@H]1NC(=O)[C@@H](N(C)C(=O)[C@@H](NC(=O)[C@@H]2C[C@@H](F)CN2C(=O)C2(C(F)(F)F)CC(F)(F)C2)C2CC2)CCCCCCCN(C)C(=O)[C@H](Cc2cc(Cl)ccc2C2=CCN(C(=O)C(C)C)CC2)N(C)C1=O [Example 143] ({cBuCO(3,3-F2-1-CF3)}-[Pro(trans-4-F)][Gly(cPr)][NMehhhLys(Me)]L[X58]; lactam 3-C) | 20 nM | 20 nM | 940 nM | 10 nM | 5180 nM | 20 nM
CC(C)C[C@@H]1NC(=O)[C@@H](N(C)C(=O)[C@@H](NC(=O)[C@@H]2C[C@@H](F)CN2C(=O)C2(C(F)(F)F)CCC2)C2CC2)CCCCCCCNC(=O)[C@H](Cc2cc(Cl)cnc2OC2CCC2)N(C)C1=O [Example 141] ({Cyclobutanecarbonyl(1-CF3)}-[Pro(trans-4-F)][Gly(cPr)][NMe(hhhLys)]L[X28]; lactam 3-C) | 190 nM | 20 nM | 100 nM | 90 nM | 3390 nM | 40 nM
CC(C)C[C@@H]1NC(=O)[C@@H](N(C)C(=O)[C@@H](NC(=O)[C@@H]2C[C@@H](F)CN2C(=O)C2(C(F)(F)F)CC(F)(F)C2)C2CC2)CCCCCCN(C)C(=O)[C@H](Cc2cc(Cl)ccc2-c2cnn(C)c2)N(C)C1=O [Example 72] | 60 nM | 20 nM | 1050 nM | 40 nM | 14900 nM | 30 nM
CC(C)C[C@@H]1NC(=O)[C@@H](N(C)C(=O)[C@@H](NC(=O)[C@@H]2C[C@@H](F)CN2C(=O)C2(C(F)(F)F)CC(F)(F)C2)C2CC2)C/C=C\CCCCN(C)C(=O)[C@H](Cc2cc(Cl)ccc2-c2cnn(C3CC3)c2)N(C)C1=O [Example 175] | 10 nM | 20 nM | 130 nM | 10 nM | 6850 nM | 20 nM
CC(C)C[C@@H]1NC(=O)[C@@H](N(C)C(=O)[C@@H](NC(=O)[C@@H]2C[C@@H](F)CN2C(=O)C2(C(F)(F)F)CC(F)(F)C2)C2CC2)CCCCCCCN(C)C(=O)[C@H](Cc2cc(Cl)ccc2-c2ccc(C(C)N3CCOCC3)cc2)N(C)C1=O (stereo partly drawn) [Example 403] ({cBuCO(3,3-F2-1-CF3)}-[Pro(trans-4-F)][Gly(cPr)][NMehhhLys(Me)]L[X59]; lactam 3-C) | 10 nM | 20 nM | 670 nM | 10 nM | 3990 nM | 20 nM
